Legend:
Format in all cases: physicochemical
[1] = SEM analysis of particle size and morphology of spray-dried drug; settings: microfluidic spray dryer; danazol in IPA and pure IPA (antisolvent replaced by solvent)
Description: To evaluate the effect of microfluidic processing on particle size and morphology of the hydrophobic drug, no stabilizer or surfactant was added to influence the particle growth. […] Morphology and particle size of the processed drug was examined by scanning electron microscopy (“SEM”) analysis. […] The scale bar denotes 300 nm.
(§1) Processed danazol was collected at distances between 5 cm and 30 cm from the spray nozzle. For SEM analysis, the spray was collected on glass slides and coated with Pd/Pt. An Ultra55 Field Emission SEM (Zeiss) coupled with an EDX detector was used. The size distribution of the nanoparticles was determined by image analysis of SEM photographs using ImageJ. For XRPD analysis, samples were collected in an aluminum box over which the spray dryer was mounted. XPRD analysis was performed using a Scintag XDS2000 powder diffractometer (Scintag, Cupertino, California, USA) with Cu Ka (K-alpha) radiation at 40 kV and 30 mA. The XRD patterns were taken at room temperature in the range of 10°≦2θ≦50° (2 theta) with a scan rate of 1° min^−1 and a step size of 0.02°.

[2] = X-ray powder diffraction analysis (XRPD) of crystallinity
Text: X-ray powder diffraction analysis (“XRPD”) was employed to determine the effect of spatial sampling on the crystallinity of danazol. Characteristic peaks at 20 (2 theta) of 15.8, 17.1 and 19.0 in the XRD pattern of unprocessed danazol were used as reference. In processed danazol, the intensity of the characteristic peaks decreased as the collection distance of the spray is increased. These figures show nanoparticles, approximately 20 nm to 60 nm in diameter, assembled in a dense network.
as §1

[3] = Energy dispersive X-ray (EDX) analysis of chemical composition after spray drying; settings: unprocessed vs processed danazol, either solvent system (IPA/water, IPA/IPA)
Description: Scale bar denotes 300 nm.
as §1

size and morphology of nanoparticles compared with IPA/water system [1]: identical size and morphology
crystallinity (XRPD) ([2]; conventional Mini Spray Dryer B 191, solution of danazol in IPA): retained
crystallinity (XRPD pattern) ([2]; microfluidic spray dryer, danazol in IPA with water, collected 5 cm from nozzle): crystalline aggregates
chemical composition of the drug during the spray drying process [3]: remained unchanged
SMILES: C#C[C@]1(O)CC[C@H]2[C@@H]3CCC4=Cc5oncc5C[C@]4(C)[C@H]3CC[C@@]21C [danazol]
crystallinity (intensity of characteristic XRPD peaks) ([2]; microfluidic spray dryer, collection distance of the spray increased (5 cm to 30 cm)): initial crystallinity of the drug was not recovered

— US20160023126A1, “SPRAY DRYING TECHNIQUES” (President and Fellows of Harvard College, priority 2010, published 2016)
